The subject of assay [1] is bovine coronary artery. In words: Vasorelaxant activity in bovine coronary artery rings. The settings on record: for Vascular Relax. % (10 μM): rings precontracted with U-46619, 100% relaxation = basal pre-U-46619 tension; for EC50: Bos taurus, bovine coronary artery rings precontracted with U-46619, read-out: Vascular Relax. EC50. The protocol: Vasorelaxant activity was measured in bovine coronary artery. Bovine hearts were obtained and the left anterior descending coronary artery was dissected and cleaned of connective tissue. Vessels of 1 mm diameter were cut into rings of 3 mm width as previously described (3, 27, 39). […] The vessels were suspended from a pair of stainless steel hooks in a 6-ml water jacketed organ chamber. […] One hook was anchored to a steel rod and the other hook to a force transducer (model FT-03C; Grass Instruments, West Warwick, R.I.). Tension of the vessel was measured by an ETH-400 bridge amplifier, and the data were acquired with a MacLab 8e analog-to-digital converter and MacLab software version 3.5.6 (AD Instruments, Milford, Mass.) and stored on a Macintosh computer for subsequent data analysis.
Basal tension was set at the length-tension maximum of 3.5 g and equilibrated for 1.5 h. KCl (40 mM) was added to the chamber until reproducible maximal contractions were maintained. […] Cumulative additions of compounds were added to the chamber. Between concentration-response curves, the chambers were rinsed with fresh Krebs buffer, 40 mM KCl was administered to determine the maximum contraction, and the vessels were rinsed. Consecutive concentration-response curves were performed with 14,15-EET followed by a concentration-response curve to a compound. The experiment was always repeated with the order of the agonists reversed. […] The relaxation was plotted versus compound concentration and the EC50 determined utilizing statistical software.

Assay [2] relates to Spontaneously Hypertensive Rats (SHR). In words: Telemetry blood pressure and heart rate in spontaneously hypertensive rats. Type of assay: in vivo, rat. From the text:
To accurately detect changes in blood pressure and heart rate, telemetry transmitters (Data Sciences Inc., St. Paul, Minn.) were implanted in rats one week prior to the experimental period according to manufacturer's specifications while under pentobarbital anesthesia. In brief, an incision was made to expose the femoral artery that was occluded to allow insertion of the transmitter catheter. The catheter was secured in place with tissue glue and the transmitter body was sutured in place and the incision line was closed. Rats were allowed to recover from surgery and were returned to individual housing. A baseline arterial pressure was recorded for prior to the experimental period. Mean arterial pressure was continuously recorded throughout the experimental period.
Telemetry transmitters were implanted into male SHR as described. After the surgical recovery period, baseline mean arterial pressure was recorded. In this series of experiments, EET analogs were administered by osmotic pump (2 mg/d, i.p.) and blood pressure was continuously monitored.

Assay [3] addresses Human recombinant sEH (Homo sapiens (Human), UniProt P34913). Briefly: Soluble epoxide hydrolase inhibition (PHOME fluorescent substrate). The format is biochemical. The settings on record: human recombinant sEH, PHOME substrate, 0.1 to 1000 nM; read-out: sEHi IC50. The protocol: Compounds were tested for their ability to inhibit recombinant soluble epoxide hydrolase (sEH) protein. The assay utilizes (3-Phhenyl-oxiranyl)-acetic acid cyano-(6-methoxy-naphthalen-2-yl)-methyl ester (PHOME), a sensitive substrate for sEH that can be used to monitor the activity of both human and murine enzymes. […] Human recombinant sEH was incubated with substrate and compounds ranging in concentration from 0.1 to 1000 nM.

Assay [4] concerns cisplatin-induced nephrotoxicity in Wistar-Kyoto (WKY) rats. Briefly: Cisplatin-induced nephrotoxicity in rats. Type of assay: in vivo, rat. From the text: Experiments were approved and carried out according to the guidelines of the Institutional Animal Care and Use Committee, Medical College of Wisconsin, Milwaukee, USA. Male Wistar-Kyoto (WKY) rats weighing 180-200 g (Charles River, Mass., USA). All animals were kept in a temperature-controlled environment with a 12-h light/dark cycle and were allowed free access to food and water at all times. An acclimatization period of 6 days was allowed for the rats before experimentation. The rats were assigned into four groups. […] Rats received drinking water ad libitum for seven days and on day 7 DMSO (Sigma Aldrich, St. Louis, Mo., USA) was administered (300-500 μl i.p.). […] These rats are pretreated with the EET analog […].) for seven days in drinking water and then on day 7 administered CP as a single injection (7 mg/kg i.p.) followed by another five days treatment with EET-A. […] One day before the rats were sacrificed, urine of each rat was collected over a 24-h period, and the volume was measured. Five days after CP or DMSO administration, rats were anesthetized for blood sample collection followed by euthanasia and tissue collection. Urine and plasma samples were kept frozen at -80° C. until analyzed. The kidneys were removed, washed with physiological saline and stored at -80° C. until used for RT-PCR analysis, thiobarbituric acid reactive substance (TBARS) measurement and caspase 3 activity assay. […] The levels of blood urea nitrogen (BUN) (BioAssay Systems, Hayward, Calif., USA) and serum creatinine (Cayman Chemical Company, Ann Arbor, Mich., USA) were measured spectrophotometrically using commercial kits. Urinary content of creatinine and protein were measured using commercial kits (Cayman Chemical Company, Ann Arbor, Mich., USA), and the activity of urinary N-acetyl-b-glucosaminidase (NAG) in the urine was measured by a kit from Diazyme (Diazyme Laboratories, Poway, Calif., USA). While urine content of kidney injury molecule-1 (KIM-1) was measured using ELISA (R&D Systems, Inc. Minneapolis, Minn., USA). Malondialdehyde (MDA) is a thiobarbituric acid reactive substance (TBARS) that is formed as an end-product of lipid peroxidation and serves as an important index of oxidative stress. […] Using a commercially available kit (Cayman Chemical Company, Ann Arbor, Mich., USA), MDA was measured spectrophotometrically after reaction with thiobarbituric acid. […] Louis, Mo., USA). Kidney homogenate was prepared with a lysis Buffer (50 mM HEPES, pH 7.4, with 5 mM CHAPS and 5 mM DTT). […] The caspase 3 activity is expressed as nmol of AMC/min/μL. Real-Time analysis was carried out to assess the expression of oxidative (gp91phox, NOX1, SOD1, SOD2, SOD3), inflammatory (TNF-α, IL-6, apoptotic (Bax, Bak, Bcl-2) and endoplasmic reticulum stress (GRP78, caspase 12) related genes in the kidney. Total RNA was isolated from kidney homogenate using TRIzol LS reagents (Invitrogen Life Technologies, Carlsbad, Calif., USA) according to the manufacturer's instructions. The isolated RNA was treated with RNase-free DNase (Invitrogen, Carlsbad, Calif., USA) to remove traces of genomic DNA contamination. The mRNA samples were quantified by spectrophotometry at 260 nm and 1 μg of total RNA was reverse-transcribed to cDNA using iScriptTM Select cDNA Synthesis Kit (Bio-Rad, Hercules, Calif., USA). The target gene expression was quantified by iScript One-Step RT-PCR Kit with SYBR green using MyiQTM Single Color Real-Time PCR Detection System (Bio-Rad Laboratories, Hercules, Calif., USA). Each amplified sample in all wells was analyzed for homogeneity using dissociation curve analysis using iQ5 Optical System Software, Version 2.1 (Bio-Rad Laboratories, Hercules, Calif., USA). […] In analyzing the relative expression of the target genes, the Ct values were normalized to a housekeeping gene (pgk1). Statistical analyses were carried out for at least 5-7 experimental samples in each experimental group. Primers used in this study were designed based on several earlier reports. […]

This note sets out measurements from patent US9422318B2, “Epoxyeicosatrienoic acid analogs and methods of making and using the same” (THE MEDICAL COLLEGE OF WISCONSIN, INC., priority 2011, dated 2016).

Sequence of Human recombinant sEH (P34913 whole entry): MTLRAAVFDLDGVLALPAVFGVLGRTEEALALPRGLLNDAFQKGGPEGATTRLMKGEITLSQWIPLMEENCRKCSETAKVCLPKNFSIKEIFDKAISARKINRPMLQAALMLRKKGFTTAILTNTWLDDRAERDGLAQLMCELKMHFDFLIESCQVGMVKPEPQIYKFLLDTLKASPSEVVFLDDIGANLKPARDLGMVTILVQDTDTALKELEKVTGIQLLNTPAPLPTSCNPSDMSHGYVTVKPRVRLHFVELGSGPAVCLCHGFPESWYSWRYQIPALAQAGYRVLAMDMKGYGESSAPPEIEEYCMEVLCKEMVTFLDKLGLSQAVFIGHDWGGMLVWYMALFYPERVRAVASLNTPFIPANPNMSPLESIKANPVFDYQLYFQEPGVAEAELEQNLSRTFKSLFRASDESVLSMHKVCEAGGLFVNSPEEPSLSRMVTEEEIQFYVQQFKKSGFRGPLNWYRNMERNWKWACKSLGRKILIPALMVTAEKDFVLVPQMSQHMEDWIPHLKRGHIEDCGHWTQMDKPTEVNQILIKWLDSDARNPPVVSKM

As to `CCCCCNC(=O)NCCCC/C=C\CCCCCCc1noc(=S)[nH]1` [Compound 28], in assay [1], the “Vascular Relax. % (10 μM)” value was found to be 93%.
`CCCCCNC(=O)NCCCC/C=C\CCCCCCc1nnn[nH]1` [Compound 20]: in assay [2] (2 mg/d i.p., vehicle 331±17.0), the heart rate stood at 325±11.0 BPM.
In general, IC50 refers to the concentration at which inhibition is half-maximal. `CCCCCCC(=O)N(CCCC/C=C\CCCCCCc1nnn[nH]1)C(C)C` [Compound 19]: the “Vascular Relax. % (10 μM)” value in assay [1] was 74%. Besides, in assay [3], the half-inhibitory concentration (IC50) was more than 0.5 µM.
The term EC50 denotes the concentration giving half of the maximal effect. Turning to `CCCCCCC(=O)N(CCCC/C=C\CCCCCCC(=O)OCCOCCOCCO)C(C)C` [Compound 1, 2-(2-(2-Hydroxyethoxyl)ethoxy)ethyl 13-(N-isopropylheptanamido)tridec-8(Z)-enoate], in assay [1], the “Vascular Relax. % (10 μM)” value came out at 86% and the EC50 stood at 2.9 µM.
Turning to `CCCCCNC(=O)NCCCC/C=C\CCCCCCC(=O)NS(=O)(=O)c1ccccc1` [Compound 8, 13-(3-n-Pentylureido)-N-(phenylsulfonyl)tridec-8(Z)-enamide], the “Vascular Relax. % (10 μM)” value in assay [1] turned out to be 73%.
Same read-out and setting: in the case of `CCCCCNC(=O)NCCCC/C=C\CCCCCCCc1nnn[nH]1` [Compound 22, 1-(13-(1H-Tetrazol-5-yl)tridec-5(Z)-enyl)-3-n-pentylurea] it was 110%; in that of `CCCCCNC(=O)NCCCC/C=C\CCCCCCC(=O)N[C@@H](CC(=O)O)C(=O)O` (stereo in doubt) [Compound 7, (S)-2-(13-(3-n-Pentylureido)tridec-8(Z)-enamido)succinic acid], 91%; in that of `CCCCCNC(=O)NCCCC/C=C\CCCCCCc1nsc(=O)[nH]1` [Compound 29], 54%.
On the same count and under the same terms, the same measure for `CCCCCN(C)C(=O)N(C)CCCC/C=C\CCCCCCC(=O)NCC(=O)O` [Compound 6, 2-(13-(1,3-Dimethyl-3-n-pentylureido)tridec-8(Z)-enamido)acetic acid]: 92%; for `CCCCCNC(=O)NCCCC/C=C\CCCCCCS(=O)(=O)[O-].[Na+]` [Compound 11]: 63%.
The same measure, in the same setting: the same measure for `CCCCNC(=O)C(=O)NCCCC/C=C\CCCCCCc1nnn[nH]1` [Compound 21]: 96%; for `CCCCCNC(=O)NCCCC/C=C\CCCCCCc1noc(=O)[nH]1` [Compound 23]: 89%.
On to `CCCCNC(=O)C(=O)NCCCC/C=C\CCCCCCC(=O)OCCOCCOCCO` [Compound 3, 2-(2-(2-Hydroxyethoxyl)ethoxy)ethyl13-(2-(n-butylamino)-2 oxoacetamido)tridec-8(Z)-enoate], for which, in assay [1], the “Vascular Relax. % (10 μM)” value was 104% and the 50% effective concentration (EC50) amounted to 1.5 µM.
`CCCCCCC(=O)N(CCCC/C=C\CCCCCCC(=O)NCC(=O)O)C(C)C` [Compound 5, 2-(13-(N-Isopropylheptanamido)tridec-8(Z)-enamido)acetic acid]: the “Vascular Relax. % (10 μM)” value in assay [1] worked out at 95%. Besides, the half-inhibitory concentration (IC50) in assay [3] was more than 0.5 µM.
As for `CCCCCNC(=O)NCCCC/C=C\CCCCCCC(=O)OCCOCCOCCO` [Compound 2, 2-(2-(2-Hydroxyethoxyl)ethoxy)ethyl 13-(3-n-pentylureido)tridec-8(Z)-enoate], in assay [1], the “Vascular Relax. % (10 μM)” value was determined as 72% and the half-maximal effective concentration (EC50) was determined as 5.1 µM.
As to `CCCCCNC(=O)NCCCC/C=C\CCCCCCP(=O)([O-])[O-].[Na+].[Na+]` [Compound 10], in assay [1], the “Vascular Relax. % (10 μM)” value is listed as 71%.
For `CCCCCNC(=O)NCCCCCOc1cccc2sc(NC(C)=O)nc12` [Compound 31, N-(4-(5-(3-n-Pentylureido)pentyloxy)benzo[d]thiazol-2-yl)acetamide], the “Vascular Relax. % (10 μM)” value in assay [1] is recorded as 73%.
Compound `CCCCCCC(=O)N(CCCC/C=C\CCCCCCC1=NOS(=O)N1)C(C)C` (stereo not drawn) [Compound 26] registered a blood pressure in assay [2] (2 mg/d i.p. osmotic pump, after two weeks of treatment, vehicle 141±3.0) of 150±5.0 mmHg.
With `CCCCCNC(=O)NCCCC/C=C\CCCCCCC(=O)NS(C)(=O)=O` [Compound 9, N-(Methylsulfonyl)-13-(3-n-pentylureido)tridec-8(Z)-enamide], the “Vascular Relax. % (10 μM)” value in assay [1] came to 61%.
`CCCCNC(=O)C(=O)NCCCCCOc1cccc2sc(NC(C)=O)nc12` [Compound 32, N^1-(5-(2-Acetamidobenzo[d]thiazol-4-yloxy)pentyl)-N^2-n-butyloxalamide]: in assay [1], the “Vascular Relax. % (10 μM)” value was determined as 96%. For the same compound, the IC50 in assay [3] is more than 0.5 µM.
`CCCCCNC(=O)NCCCC/C=C\CCCCOCC(=O)O` [Compound 4, 2-(10-(3-n-Pentylureido)dec-5(Z)-enyloxy)acetic acid]: the “Vascular Relax. % (10 μM)” value in assay [1] stood at 49%.
Consider `CCCCCCC(=O)N(CCCCCOc1cccc2sc(NC(=O)C(C)(C)C)nc12)C(C)C` [EET-B, N-Isopropyl-N-(5-(2-pivalamidobenzo[d]thiazol-4-yloxy)pentyl)heptanamide], for which the “kidney TBARS formation” value in assay [4] (10 mg/kg/d p.o., vehicle 16±2) came to 8 ± 1 µmol/g. Further, the “reductions in renal mRNA expressions of inflammatory markers (TNF-α, IL-6, interleukin-1β)” value in assay [4] (cisplatin-administered rats) is given as 40-60%. The compound further came in with a proteinuria in assay [4] (cisplatin-administered rats, vehicle 53±5) of 32 ± 3 mg/day. The “reductions in the elevated levels of serum creatinine and BUN” value in assay [4] (five days after cisplatin, vs. vehicle) was 30-50%. In assay [4] (urinary, 10 mg/kg/d p.o., vehicle 3.0±0.6), the NAG is 0.6±0.2 U/d. The compound also had a KIM-1 in assay [4] (urinary, 10 mg/kg/d p.o., vehicle 296±94) of 57 ± 13 ng/day.
